The results in this text go back to ChEMBL document CHEMBL3608302, “Identification of 2-aminopyrimidine derivatives as inhibitors of the canonical Wnt signaling pathway” (Bioorg Med Chem, 2015).

The term IC50 denotes the concentration that inhibits the measured activity by half. Broadly, the solubility is the concentration that dissolves in the medium under given conditions. A lower solubility goes with a poorly soluble substance.

In brackets after ≈: the same amount, converted by molar mass.

One series addresses CYP3A4 (Homo sapiens, UniProt P08684). Kind of series: Metabolic stability of in DMSO solution assessed as human CYP3A4-mediated drug degdaradtion by measuring compound remaining at 1 uM after 1 hr in presence of human CYP3A4 and NADPH. Type of series: ADME. Conditions: human CYP3A4 enzyme, read-out: Stability; call rule not given here.
A short description of series [1]: Inhibition of canonical Wnt pathway in human DBTRG-05-MG cells after 36 hrs by TCF-luciferase and TA-renilla dual-luciferase reporter assay. Type of series: cell-based. (In general: In a reporter assay the amount or activity of a reporter protein is the signal.)
Series [2] is described as follows: Solubility of the compound at pH 3 to 7.4 after 24 hrs. The series is classed as physicochemical. Conditions: buffer; for solubility: pH 3, 24 h; for solubility at 24 h: pH 3.
Series [3] can be described thus: Permeability of the compound by PAMPA. Conditions: read-out: permeability. The series is classed as physicochemical. Background: The PAMPA barrier holds no transporters, so it reflects passive diffusion.
Setting [4] is: Homo sapiens, DBTRG-05MG, 36 h, read-out: IC50.

Sequence of CYP3A4 (P08684 whole entry): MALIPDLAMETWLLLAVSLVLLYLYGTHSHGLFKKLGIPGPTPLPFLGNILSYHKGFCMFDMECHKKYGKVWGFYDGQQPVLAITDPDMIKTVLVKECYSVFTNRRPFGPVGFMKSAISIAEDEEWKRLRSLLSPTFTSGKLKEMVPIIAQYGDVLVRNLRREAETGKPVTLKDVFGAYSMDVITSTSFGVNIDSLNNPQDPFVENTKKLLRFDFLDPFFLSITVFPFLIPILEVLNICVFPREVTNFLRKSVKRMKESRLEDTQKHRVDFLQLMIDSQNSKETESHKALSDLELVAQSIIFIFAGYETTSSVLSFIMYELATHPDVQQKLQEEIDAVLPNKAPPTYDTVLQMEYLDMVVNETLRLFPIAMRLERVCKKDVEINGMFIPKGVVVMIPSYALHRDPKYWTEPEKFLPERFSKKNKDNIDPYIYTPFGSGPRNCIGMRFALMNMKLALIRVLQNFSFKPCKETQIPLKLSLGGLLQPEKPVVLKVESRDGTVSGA

On to `Cc1cc(-c2cnc(N3CCOCC3)nc2-c2ccc(C)s2)on1`, for which the remaining at 1 h, 1 µM on CYP3A4 was less than 20%. Also, the half-maximal inhibitory concentration (IC50) in series [1] (setting [4]) was 8.5 µM. In addition, the solubility entry in series [2] is “Insoluble”.

With `Cc1cc(-c2cnc(N3CCCC3)nc2-c2ccc(C)s2)on1`, on CYP3A4, the remaining at 1 h, 1 µM is less than 20%. The IC50 result in series [1] is recorded as “Not Active”. In series [2], the solubility result is on record as “Insoluble”.

As to `Cc1cc(-c2cnc(N3CCN(C)CC3)nc2-c2ccc(C)s2)on1`, the Papp in series [3] was more than 10 ×10⁻⁶ cm/s. Besides, the remaining at 1 h, 1 µM at CYP3A4 is 51%. The concentration for half-maximal inhibition (IC50) entry in series [1] is reported as “Not Active”. In addition, the concentration in solution in series [2] (solubility at 24 h) came to 11 µM (≈ 3.91 µg/mL).

As to `Cc1cc(-c2cnc(N3CC(C)OC(C)C3)nc2-c2ccc(C)s2)on1` (stereo not drawn), the remaining at 1 h, 1 µM at CYP3A4 was less than 20%. Moreover, the IC50 in series [1] (setting [4]) is 14.1 µM. Moreover, in series [2], the solubility result is listed as “Insoluble”.

Consider `Cc1cc(-c2cnc(NC(C)C)nc2C2CCN(C(=O)c3ccc(C)s3)CC2)on1`, for which the remaining at 1 h, 1 µM on CYP3A4 is less than 20%. Also, the IC50 in series [1] (setting [4]) was found to be 8.05 µM. For the same compound, the solubility result in series [2] is “Insoluble”.

For `Cc1cc(-c2cnc(NCc3cccnc3)nc2-c2ccc(C)s2)on1`, at CYP3A4, the remaining at 1 h, 1 µM was less than 20%. In series [1] (setting [4]), the half-inhibitory concentration (IC50) worked out at 17.6 µM. In series [2], this compound yielded a solubility at 24 h of 1 µM (≈ 0.363 µg/mL).

As to `Cc1cc(-c2cnc(NCc3ccccn3)nc2-c2ccc(C)s2)on1`, the remaining at 1 h, 1 µM at CYP3A4 was less than 20%. Further, in series [1] (setting [4]), the half-maximal inhibitory concentration (IC50) is 13.9 µM. In series [2], this compound returned a solubility at 24 h of 1 µM (≈ 0.363 µg/mL).

Turning to `Cc1cc(-c2cnc(NC(C)C)nc2-c2ccc(C)s2)on1`, the remaining at 1 h, 1 µM on CYP3A4 was found to be 20%. For the same compound, in series [1], the IC50 entry is reported as “Not Active”. Besides, in series [2], the solubility entry is “Insoluble”.

For the compound `Cc1cc(-c2cnc(NCc3ccc(F)cc3)nc2-c2ccc(C)s2)on1`, the remaining at 1 h, 1 µM at CYP3A4 turned out to be 29%. Moreover, the half-inhibitory concentration (IC50) entry in series [1] is given as “Not Active”. Besides, the solubility result in series [2] is reported as “Insoluble”.

Turning to `COCCNc1ncc(-c2cc(C)no2)c(-c2ccc(C)s2)n1`, the Papp in series [3] was more than 10 ×10⁻⁶ cm/s. Moreover, the remaining at 1 h, 1 µM at CYP3A4 amounted to 27%. For the same compound, the IC50 result in series [1] is “Not Active”. For the same compound, the solubility result in series [2] was “Insoluble”.

As to `CC(=O)N1CCC(c2nc(N3CCCC3)ncc2-c2cc(C)no2)CC1`, the Papp in series [3] is more than 10 ×10⁻⁶ cm/s. Moreover, the remaining at 1 h, 1 µM at CYP3A4 was determined as 59%. Further, the half-maximal inhibitory concentration (IC50) entry in series [1] is listed as “Not Active”. Moreover, the concentration in solution in series [2] (solubility at 24 h) came to 207 µM (≈ 73.6 µg/mL).

In the case of `CC(=O)N1CCC(c2nc(N3CCN(C)CC3)ncc2-c2cc(C)no2)CC1`, in series [3], the Papp turned out to be 2 ×10⁻⁶ cm/s. In addition, the remaining at 1 h, 1 µM at CYP3A4 is 100%. Also, the half-inhibitory concentration (IC50) entry in series [1] is “Not Active”. The solubility at 24 h in series [2] was 225 µM (≈ 86.5 µg/mL).

For the compound `CC(=O)N1CCC(c2nc(N3CCOCC3)ncc2-c2cc(C)no2)CC1`, in series [3], the Papp was more than 10 ×10⁻⁶ cm/s. The remaining at 1 h, 1 µM at CYP3A4 is 75%. Also, the IC50 in series [1] (setting [4]) amounted to 10.6 µM. In addition, the concentration in solution in series [2] (solubility at 24 h) was 211 µM (≈ 78.4 µg/mL).

For the compound `CC(=O)N1CCC(c2nc(NCc3cccnc3)ncc2-c2cc(C)no2)CC1`, the Papp in series [3] stood at 2 ×10⁻⁶ cm/s. Also, the remaining at 1 h, 1 µM on CYP3A4 was less than 20%. In series [2], this compound yielded a solubility at 24 h of 238 µM (≈ 93.4 µg/mL).

For `CC(=O)N1CCC(c2nc(NCc3ccccn3)ncc2-c2cc(C)no2)CC1`, the Papp in series [3] was 2 ×10⁻⁶ cm/s. Moreover, on CYP3A4, the remaining at 1 h, 1 µM worked out at 27%. The 50% inhibitory concentration (IC50) entry in series [1] is on record as “Not Active”. This compound had a solubility at 24 h in series [2] of 221 µM (≈ 86.7 µg/mL).

Take `CC(=O)N1CCC(c2nc(NC(C)C)ncc2-c2cc(C)no2)CC1`: the Papp in series [3] was more than 10 ×10⁻⁶ cm/s. In addition, on CYP3A4, the remaining at 1 h, 1 µM was found to be 75%. Also, in series [1], the concentration for half-maximal inhibition (IC50) entry is reported as “Not Active”. Further, in series [2], the solubility at 24 h was determined as 224 µM (≈ 76.9 µg/mL).

With `CC(=O)N1CCC(c2nc(NCc3ccc(F)cc3)ncc2-c2cc(C)no2)CC1`, in series [3], the Papp is more than 10 ×10⁻⁶ cm/s. Besides, the remaining at 1 h, 1 µM on CYP3A4 was less than 20%. Moreover, the IC50 result in series [1] is on record as “Not Active”. Besides, the solubility entry in series [2] was “Insoluble”.

Regarding `COCCNc1ncc(-c2cc(C)no2)c(C2CCN(C(C)=O)CC2)n1`, the Papp in series [3] turned out to be 2 ×10⁻⁶ cm/s. The remaining at 1 h, 1 µM at CYP3A4 turned out to be 84%. The half-maximal inhibitory concentration (IC50) result in series [1] is recorded as “Not Active”. The compound also had a solubility at 24 h in series [2] of 233 µM (≈ 83.7 µg/mL).
